The values below come from ChEMBL document CHEMBL1201862, “PubChem BioAssay data set” (2004).

Some test systems named below: SK-OV-3; UO-31; SF-295; PC-3; NCI-H226; HL-60; SK-MEL-28; NCI-H460; NCI-H522; IGROV-1; OVCAR-8; CAKI-1; SNB-75; LOX IMVI; UACC-257; COLO 205; SN12C; RPMI-8226; SW-620; T47D.
Assay in all cases: NCI anticancer screen, dose series, 48 h

Values joined by “and” are separate entries in the source; they are usually repeats but may differ in a detail not shown here. Equal entries are not always repeated.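 Cells were grown in 96-well plates and exposed to each compound for 48 hours at five concentrations; endpoints were interpolated linearly between bracketing concentrations, or set to the highest concentration if not reached. The concentration for 50% growth inhibition is given as GI50.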 Active and inactive are the calls of the source. Cut-off read from the data, not from the text of the source: active = GI50 up to about 1.1 µM and inactive = higher.

With `CC1CCC2(OC1)OC1CC3C4CC=C5CC(OC6OC(CO)C(OC7OC(C)C(OC8OC(C)C(O)C(O)C8O)C(O)C7O)C(O)C6OC6OC(C)C(O)C(O)C6O)CCC5(C)C4CCC3(C)C1C2C` (stereo not drawn), the GI50 with SK-OV-3 is 1.07 µM (active); in the test on UO-31 it was 0.216 µM (active); with SF-295, 0.308 µM (active); in the test on PC-3 it was 0.724 µM (active); in the test on NCI-H226, 1.36 µM (inactive); in the test with HL-60 it was 0.239 µM (active). The GI50 was 0.612 µM (active) with SK-MEL-28; 1.61 µM (inactive) in the test on NCI-H460; 0.643 µM (active) in the test on NCI-H522; 1.3 µM (inactive) in the test on IGROV-1; 0.326 µM (active) in the test with OVCAR-8; 1.29 µM (inactive) in the test with CAKI-1. The GI50 with SNB-75 was 0.372 µM (active); in the test on LOX IMVI, 0.185 µM (active); in the test on UACC-257, 0.74 µM (active); in the test on COLO 205 it was 1.28 µM (inactive); in the test on SN12C it was 0.267 µM (active); in the test with RPMI-8226, 0.382 µM (active). Also, the GI50 was 1.48 µM (inactive) in the test on SW-620 and 1.24 µM (inactive) in the test on T47D.

Consider `CC(=O)Oc1ccc2c(C)cc(=O)oc2c1`, for which the GI50 with SK-OV-3, in the test on UO-31, in the test on SF-295, with PC-3, with NCI-H226 and in the test with HL-60 was > 100 µM (inactive) throughout. The GI50 in the test on SK-MEL-28, in the test with NCI-H460, with NCI-H522, with IGROV-1, with OVCAR-8 and with CAKI-1 was > 100 µM (inactive) each time. For the same molecule, the GI50 in the test with SNB-75, in the test on LOX IMVI, in the test on UACC-257, in the test with COLO 205, with SN12C and in the test with RPMI-8226 was > 100 µM (inactive) in each case. The GI50 with SW-620 was > 100 µM (inactive); in the test on T47D, > 100 µM (inactive) and 61.7 µM (inactive).

As to `O=C1C(Br)=Cc2c(Cl)sc(Cl)c21`, the GI50 in the test on SK-OV-3 was 15.5 µM (inactive); in the test with UO-31, 2.82 µM (inactive); in the test on SF-295 it was 24 µM (inactive); in the test with PC-3, 2.55 µM (inactive); in the test on NCI-H226 it was > 100 µM (inactive); in the test with HL-60, 1.87 µM (inactive). Moreover, the GI50 with SK-MEL-28 was 11.6 µM (inactive); in the test on NCI-H460, 18.3 µM (inactive); with NCI-H522, 5.16 µM (inactive); with IGROV-1, 2.59 µM (inactive); with OVCAR-8 it was 3.24 µM (inactive); with CAKI-1, 3.05 µM (inactive). For the same molecule, the GI50 in the test on SNB-75 is 13.3 µM (inactive); with LOX IMVI, 2.36 µM (inactive); in the test with UACC-257 it was 5.45 µM (inactive); with COLO 205, 6.76 µM (inactive); in the test on SN12C, 5.51 µM (inactive); in the test with RPMI-8226, 0.668 µM (active). The GI50 with SW-620 is 2.19 µM (inactive); in the test on T47D, 2.42 µM (inactive).

As to `CC(=NNC(=S)Nc1ccc(C)cc1)c1cccc(C(C)=NNC(=S)Nc2ccc(C)cc2)n1`, the GI50 in the test with SK-OV-3 is 47.3 µM (inactive); with UO-31, 6.68 µM (inactive); with SF-295, 11 µM (inactive); in the test with PC-3 it was 17.7 µM (inactive); in the test on NCI-H226, 13.7 µM (inactive); with HL-60, 3.97 µM (inactive). Moreover, the GI50 with SK-MEL-28 was > 100 µM (inactive); with NCI-H460 it was 6.47 µM (inactive); in the test on NCI-H522, 22.3 µM (inactive); in the test with IGROV-1 it was 12.1 µM (inactive); with OVCAR-8, 6.44 µM (inactive); in the test with CAKI-1, 4.75 µM (inactive). The GI50 in the test with SNB-75 was 4.69 µM (inactive); in the test on LOX IMVI it was 9.91 µM (inactive); in the test on UACC-257, 13.9 µM (inactive); with COLO 205, 3.83 µM (inactive); in the test with SN12C it was 21.5 µM (inactive); in the test on RPMI-8226, 19.2 µM (inactive). For the same molecule, the GI50 in the test with SW-620 is 10.9 µM (inactive); with T47D, 29.6 µM (inactive).

As for `COc1ccc(P2(=S)Oc3ccc(C(c4ccccc4)(c4ccccc4)c4ccccc4)cc3O2)cc1` (stereo not drawn), the GI50 was 23 µM (inactive) in the test on SK-OV-3; 17 µM (inactive) with UO-31; 18.1 µM (inactive) with SF-295; 13.9 µM (inactive) with PC-3; 16.6 µM (inactive) in the test with NCI-H226; 15.5 µM (inactive) with HL-60. The GI50 is 19.7 µM (inactive) in the test with SK-MEL-28; 18.6 µM (inactive) in the test with NCI-H460; 16.7 µM (inactive) in the test with NCI-H522; 17.5 µM (inactive) with IGROV-1; 16 µM (inactive) in the test on OVCAR-8; 19.1 µM (inactive) in the test with CAKI-1. For the same molecule, the GI50 with SNB-75 was 13.7 µM (inactive); with LOX IMVI, 14.5 µM (inactive); in the test with UACC-257, 19.2 µM (inactive); in the test with COLO 205, 20.2 µM (inactive); with SN12C it was 17.9 µM (inactive); in the test with RPMI-8226 it was 23 µM (inactive). Further, the GI50 was 19.6 µM (inactive) with SW-620 and 13.7 µM (inactive) in the test on T47D.

For the molecule `CC(C)=CCNc1ncnc2[nH]cnc12`, the GI50 in the test on SK-OV-3 is > 100 µM (inactive); in the test with UO-31, > 100 µM (inactive); in the test on SF-295, > 100 µM (inactive); in the test with PC-3, > 100 µM (inactive); in the test on NCI-H226, 90.2 µM (inactive); in the test with HL-60 it was > 100 µM (inactive). For the same molecule, the GI50 in the test on SK-MEL-28, in the test with NCI-H460, with NCI-H522, with IGROV-1, in the test on OVCAR-8 and in the test with CAKI-1 was > 100 µM (inactive) in each case. For the same molecule, the GI50 was > 100 µM (inactive) with SNB-75; > 100 µM (inactive) in the test on LOX IMVI; 37.1 µM (inactive) in the test on UACC-257; > 100 µM (inactive) in the test with COLO 205; > 100 µM (inactive) in the test on SN12C; > 100 µM (inactive) in the test on RPMI-8226. The GI50 in the test with SW-620 and with T47D was > 100 µM (inactive) throughout.

With `c1ccc(C(OCCN2CC3CCC(C2)N3)c2ccccc2)cc1`, the GI50 is > 100 µM (inactive) in the test with SK-OV-3; 64 µM (inactive) with UO-31; 83 µM (inactive) in the test on SF-295; > 100 µM (inactive) with PC-3; 45 µM (inactive) in the test with NCI-H226; 74.1 µM (inactive) in the test with HL-60. Moreover, the GI50 was 29.9 µM (inactive) in the test with SK-MEL-28; 50.4 µM (inactive) in the test with NCI-H460; 35.2 µM (inactive) in the test with NCI-H522; 94.6 µM (inactive) in the test on IGROV-1; > 100 µM (inactive) in the test with OVCAR-8; > 100 µM (inactive) in the test on CAKI-1. For the same molecule, the GI50 with SNB-75 is 50.1 µM (inactive); in the test with LOX IMVI, 66.4 µM (inactive); with UACC-257, 22.7 µM (inactive); in the test on COLO 205, 19 µM (inactive); in the test on SN12C, > 100 µM (inactive); in the test with RPMI-8226, 34.1 µM (inactive). The GI50 with SW-620 is 81.3 µM (inactive); in the test with T47D it was 29.9 µM (inactive).

For `COC(=O)NC1C(C)OC(OC2C/C=C(/C)C3C=CC4C(OC5CC(OC6CC(O)C(OC7CC(O)C(OC)C(C)O7)C(C)O6)C(O)C(C)O5)C(C)CC(C)C4C3(C)C(=O)C3=C(O)C4(CC(C)C(CO)=CC4/C=C\2C)OC3=O)CC1(C)[N+](=O)[O-]` (stereo not drawn), the GI50 was 12 µM (inactive) in the test with SK-OV-3; 17.1 µM (inactive) in the test with UO-31; 16.6 µM (inactive) with SF-295; 15.9 µM (inactive) in the test on PC-3; 11.7 µM (inactive) in the test with NCI-H226; 4.51 µM (inactive) with HL-60. The GI50 was 11.2 µM (inactive) in the test with SK-MEL-28; 12.3 µM (inactive) in the test on NCI-H460; 5.69 µM (inactive) in the test on NCI-H522; 8.93 µM (inactive) with IGROV-1; 9.38 µM (inactive) in the test on OVCAR-8; 19.4 µM (inactive) in the test with CAKI-1. Besides, the GI50 in the test on SNB-75 is 19.7 µM (inactive); in the test on LOX IMVI, 11.5 µM (inactive); in the test on UACC-257, 13.9 µM (inactive); with COLO 205, 5.16 µM (inactive); in the test with SN12C, 12.9 µM (inactive); in the test with RPMI-8226, 3.13 µM (inactive). Further, the GI50 was 9.86 µM (inactive) with SW-620 and 11.5 µM (inactive) in the test on T47D.

Consider `CCOP(=O)(/C=C/n1cc(C)c(=O)[nH]c1=O)OCC`, for which the GI50 in the test on SK-OV-3, in the test on SF-295, in the test on PC-3, in the test on NCI-H226, with HL-60 and in the test with SK-MEL-28 was > 100 µM (inactive) each time. Also, the GI50 with NCI-H460, in the test with NCI-H522, in the test with IGROV-1, in the test on OVCAR-8, in the test with CAKI-1 and with SNB-75 was > 100 µM (inactive) in each case. Further, the GI50 in the test on LOX IMVI, with UACC-257, in the test on COLO 205, in the test on SN12C, with RPMI-8226 and in the test with SW-620 was > 100 µM (inactive) each time. In the test on T47D, the GI50 was > 100 µM (inactive).

As for `CSc1ncnc2c1ncn2C1CC(Oc2ccc(C)cc2)C(COc2ccc(C)cc2)O1` (stereo not drawn), the GI50 in the test on SK-OV-3, in the test with SF-295, in the test with PC-3, in the test on NCI-H226, with HL-60 and in the test with SK-MEL-28 was > 100 µM (inactive) in each case. Further, the GI50 with NCI-H460 is > 100 µM (inactive); with NCI-H522 it was > 100 µM (inactive); in the test on IGROV-1 it was > 100 µM (inactive); in the test on OVCAR-8 it was > 100 µM (inactive); in the test on CAKI-1 it was 24.7 µM (inactive); in the test with SNB-75, > 100 µM (inactive). The GI50 with LOX IMVI was > 100 µM (inactive); in the test on UACC-257, > 100 µM (inactive); in the test on COLO 205, > 100 µM (inactive); in the test on SN12C it was > 100 µM (inactive); in the test with RPMI-8226 it was 9.66 µM (inactive); in the test with SW-620, > 100 µM (inactive). Besides, the GI50 with T47D is 16.6 µM (inactive).
